According to paper PMC8378262 (Journal of controlled release : official journal of the …, 2021):

Test system: Sprague Dawley rats
Test: Mean systemic arterial pressure
Type: in vivo
Conditions: healthy rats, intravenous 3 mg/kg

| Compound | change in mSAP (until 6 h after injection) | duration of the reduction in mSAP after injection | maximum reduction of mSAP from baseline (within 30 min) |
| --- | --- | --- | --- |
| O=[N+]([O-])c1ccc(COc2nccc3c(S(=O)(=O)N4CCCNCC4)cccc23)cc1 [FasPRO, 5-((1,4-diazepan-1-yl)sulfonyl)-1-((4-nitrobenzyl)oxy)isoquinoline] | did not produce any changes in mSAP | – | – |
| O=S(=O)(c1cccc2cnccc12)N1CCCNCC1 [Fasudil, reference compound] | – | 90 min | 38.6±8.4% |
